Test results: patent US20100022626A1, “Modulators of cell migration and methods of identifying same” (priority 2005, published 2010)

Tested on: H1299 cells
Experiment: Phagokinetic track (PKT) assay of H1299 cells treated with cytoskeletal drugs
Type: cell-based
Settings: for Track area: 4 μM Latrunculin A, 2.5 μM Nocodazole or 100 ng/ml PMA, 5 h total; for Track area / Axis ratio / Effective velocity / Major axis / Migration velocity / Minor axis / Perimeter / Roughness / Solidity: mean ± SD; for Effect on cell motility (montage images, FIG. 6): Latrunculin A 4 μM, Nocadazole 2.5 μM, PMA 100 ng/ml; for PKT area compared to control cells: Latrunculin/Nocodazole p=~0, PMA p<0.05; for Axis ratio / Effective velocity / Major axis / Migration velocity / Minor axis / Perimeter / Roughness / Solidity: same treatments
Protocol: Preparation of 96-wellplates: Glass-bottom 96-well plates (Cat. # 7706-2370, Whatmann, Inc., Clifton, N.J., USA) were treated for 2 hours at room temperature with 50 μl of 10 μg/ml fibronectin solution dissolved in PBS (Fibronectin, F-1141; Sigma Chemical Co., St Louis, Mo., USA). The wells were then washed twice with PBS and coated with 340 nm diameter white polystyrene latex beads (Product no. 2-300; batch no. 1344); Interfacial Dynamics Corporation-Molecular Probes Microspheres Technologies, USA. The bead suspension (3.2 ml) was centrifuged for 5 minutes at 20,800×g, and resuspended in 4 ml PBS by vortex, until all visible bead clumps were dispersed. The sedimentation procedure was then repeated, after which the beads were resuspended in 7 ml PBS, to a final concentration of […]. Aliquots of 70 μl of the bead suspension were added to each well, pre-coated with fibronectin, in the 96-well plate, and incubated at 37° C. for 2 hours, followed by gentle washing (×5 times) with PBS using a plate washer (Colombus Plus, Tecan, Switzerland). Before cells were plated, the PBS was replaced with 50 μl culture medium suitable for the particular cell type used in the assay (see FIG. 1).
Cell preparation for the phagokinetic track assay: MCF7 (ATCC-HTB-22), MDA-MB-231 (ATCC-HBT-26), and B16-F10 (ATCC-CRL-6475) cells were grown in Dulbeco's Modified Eagle's Medium (DMEM). H1299 cells (ATCC-CRL-5803) were grown in RPMI-1640. Both culture media were supplemented with 10% FCS, 2 mM glutamine, 100 international units/ml penicillin and 100 μg/ml streptomycin (Biological Industries, Beit Haemek, Israel), and placed in a 5% CO2 humidified incubator kept at 37° C. For the PKT assay, 200-400 cells (a 50 μl volume) were cultured in each well. Depending on the track dimensions, the number of the plated cells was calibrated to maximize the number of single cell tracks, yet minimize the number of intersecting tracks.
Phagokinetic track assay: In order to characterize the motile behavior of the various cell lines, MCF7, MDA-MB-231, B16-F10 and H1299 cells were plated on a monolayer of polystyrene beads. All were incubated at 37° C., 5% CO2 for 7 hours, except for the H1299 cells, which were incubated for 5 hours. The first three cell lines were grown in DMEM, and H1299 cells were grown in RPMI 1640 medium, Both media were supplemented with 10% FCS and penicillin/streptomycin antibiotic. At the end of the incubation period, cells were fixed with 3% PFA. Images were taken with a 10× objective, using the autofocus screening microscope system.
Automated microscopy: Commercially-available plates display large deviations from a plane, often exceeding 200 μm, which require adjustment of the focal plane for every image. Commonly-used autofocusing procedures, which are based on finding the highest contrast image among a focal series, are slow and not robust, particularly when low-contrast images, such as those yielded by a monolayer of micro-beads, are used. The phagokinetic tracks were therefore recorded using a cell-screening microscope described in detail (Paran et al., Methods in Enzymology, in press). The rapid, automated collection of sharp, in-focus PKT images was aided by a laser autofocus device (Liron et al., 2006, J Microsc 221, 145-51). The laser autofocus device enables precise location of the substrate surface, and guarantees sharp definition of track boundaries.
The microscope operating program and the image acquisition software was written (In-house) as an application within the UCSF Priism environment (http://msg.ucsf.edu/ive). The microscope includes a computer-controlled plate scanning stage (Prior, Cambridge UK) that defines the pattern of coverage of the well area by the individual images. For this application, images were taken using a 10×/0.4 objective, and adjacent fields were stitched together, forming a montage of the entire well, or any desired fraction of the well area. […]

Row | Structure (SMILES) | Track area [μm^2] | Effect on cell motility (montage images, FIG. 6) (in words) | Axis ratio compared to control cells (in words) | Effective velocity compared to control cells (in words) | Major axis compared to control cells (in words) | Migration velocity compared to control cells (in words) | Minor axis compared to control cells (in words) | Roughness compared to control cells (in words) | PKT area compared to control cells (in words) | Solidity compared to control cells (in words, p<0.05) | Axis ratio | Effective velocity [μm/h] | Major axis [μm] | Migration velocity [μm/h] | Minor axis [μm] | Perimeter [μm] | Roughness | Solidity
1 | CCCCCCCCCCCCCC(=O)O[C@@H]1[C@@H](C)[C@@]2(O)[C@@H](C=C(CO)C[C@]3(O)C(=O)C(C)=C[C@@H]23)[C@@H]2C(C)(C)[C@]12OC(C)=O [PMA, Phorbol 12-mirysyate 13-acetate] | 14300 ± 9100 | increase in cell motility | did not significantly differ | did not significantly differ | did not significantly differ | increased | did not significantly differ | increased | increased | increased | 2.1 ± 0.9 | 46 ± 21 | 220 ± 104 | 59 ± 26 | 108 ± 42 | 695 ± 350 | 2.9 ± 1.4 | 0.8 ± 0.1
2 | C/C1=C/C(=O)O[C@@H]2C[C@@H](CC[C@H](C)/C=C\C=C\CC1)O[C@@](O)([C@@H]1CSC(=O)N1)C2 [Latrunculin A] | 5900 ± 3500 | inhibited cell motility | reduced |  |  | reduced |  | decreased | reduced |  | 1.5 ± 0.4 | 8 ± 5 | 121 ± 44 | 10 ± 6 | 79 ± 19 | 380 ± 150 | 2.0 ± 0.7 | 0.9 ± 0.07
3 | COC(=O)Nc1nc2ccc(C(=O)c3cccs3)cc2[nH]1 [Nocodazole] | 6100 ± 3600 | inhibited cell motility | reduced |  |  | reduced |  | decreased | reduced |  | 1.6 ± 0.4 | 14 ± 8 | 123 ± 43 | 17 ± 11 | 78 ± 18 | 385 ± 140 | 2.1 ± 0.9 | 0.9 ± 0.07
